Measured values taken from patent US20250332173A1, “COMPOUNDS AND METHODS FOR MODULATING NUCLEIC ACID SPLICING” (REMIX THERAPEUTICS INC., priority 2021, published 2025).
pIC50: −log10 of the molar value. Like-named read-outs stand apart in the source and are kept apart here.

Tests used:
Assay type in all cases: cell-based, human
MYB = assay: HiBiT protein abundance assay, MYB HiBiT K562 cell line; settings: HiBiT K562 cell line, 24 hours, top dose 10 μM; read-out: Effect on protein abundance, MYB (IC50 category)
How it was run: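 K562 knock-in lines with endogenous HiBiT-tagged target, 10,000 cells/well in IMDM + FBS, treated 24 h at 37° C with 10-point 3-fold dilutions (top 10 μM final; DMSO ≤0.25%). Lytic Nano-Glo HiBiT luminescence normalized to untagged K562 baseline and DMSO controls; IC50 = concentration giving 50% abundance via four-parameter fit.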

Target C = assay: HiBiT protein abundance assay, Target C (Promega Nano-Glo HiBiT Lytic Detection System, knock-in K562 cell line); settings: Homo sapiens, K562, 24 h, HiBiT K562 cell line, 24 hours, top dose 10 μM; read-out: Effect on protein abundance, Target C (IC50 category)
How it was run: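 Knock-in K562 cells carrying HiBiT-tagged Target C, 10,000 per well, treated 24 h at 37 °C with 10-point threefold dilutions (top 10 μM final, ≤0.25% DMSO). Lytic HiBiT luminescence read; response normalised to unmodified K562 and DMSO controls, four-parameter fit interpolated at 50% for IC50.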

HTT mRNA = assay: RT-qPCR splicing assay, HTT canonical junction (CJ) and alternative junction (AJ) mRNA; settings: Homo sapiens; for AC50: increase in HTT alternative junction (AJ) mRNA, read-out: HTT AJ AC50
How it was run: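 A673 cells (normalized to PPIA) or K562 cells (normalized to GAPDH or GUSB) were treated 24 h at 37 °C with an 11-point 3-fold dilution series, top 10 uM, DMSO ≤0.25%. Cell lysates went to one-step RT-qPCR measuring canonical- and alternative-junction MYB or HTT transcripts.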

[1] = decrease in HTT canonical junction (CJ) mRNA, RT-qPCR, read-out: HTT CJ IC50
[2] = Table 5 panel, canonical junction qPCR, compound concentration having 50% response in CJ decrease, read-out: HTT IC50 (decrease in CJ mRNA levels)
[3] = canonical junction qPCR panel, Table 5, read-out: HTT (decrease in CJ mRNA levels, IC50)

SMILES | pIC50 (MYB) | pIC50 (Target C) | pIC50 (HTT mRNA; [1]) | AC50 (HTT mRNA; RT-qPCR) [nM] | pIC50 (HTT mRNA; [2]) | pIC50 (HTT mRNA; [3])
Cn1cc2cc(-c3ncc4c(=O)n(C5CCNC5)ccc4n3)c(O)c(F)c2n1 (stereo not shown) [Compound 1223] | 6.00 to 7.00 | 5.00 to 6.00 | 5.00 to 6.00 | 1000 to 10000 | 5.00 to 6.00 | –
Cc1cn2cc(-c3ncc4c(=O)n(C5CCNCC5)ccc4n3)c(O)c(C)c2n1 [Compound 1225] | 6.00 to 7.00 | 6.00 to 7.00 | 6.00 to 7.00 | 100 to 1000 | 6.00 to 7.00 | –
Cc1cn2cc(-c3ncc4c(=O)n(C5CCNC5)ccc4n3)c(O)c(C)c2n1 (stereo not shown) [Compound 1227] | 5.00 to 6.00 | < 5.00 | < 5.00 | > 10000 | < 5.00 | –
Cc1cn2cc(-c3ncc4c(=O)n([C@@H]5CCNC5)ccc4n3)cc(F)c2n1 [Compound 1228] | 6.00 to 7.00 | 5.00 to 6.00 | < 5.00 | > 10000 | < 5.00 | –
Cn1cc2cc(-c3ccc4c(=O)n(C5CCNCC5)ccc4n3)cc(F)c2n1 [Compound 1231] | 6.00 to 7.00 | 6.00 to 7.00 | 6.00 to 7.00 | 100 to 1000 | – | 6.00 to 7.00
Cc1cn2cc(-c3ccc4c(=O)n(C5CCNCC5)ccc4n3)nc(C)c2n1 [Compound 1238, 2-(2,8-dimethylimidazo[1,2-a]pyrazin-6-yl)-6-(piperidin-4-yl)-1,6-naphthyridin-5(6H)-one] | < 5.00 | < 5.00 | < 5.00 | > 10000 | – | < 5.00
Cc1cn2cc(-c3ccc4c(=O)n(C5CCNCC5)ccc4n3)c(O)cc2n1 [Compound 1240] | < 5.00 | < 5.00 | < 5.00 | > 10000 | – | < 5.00
Cc1cn2cc(-c3ccc4c(=O)n(C5CCNCC5)ccc4n3)cc(C)c2n1 [Compound 1241, 2-(2,8-dimethylimidazo[1,2-a]pyridin-6-yl)-6-(piperidin-4-yl)-1,6-naphthyridin-5(6H)-one] | > 7.00 | > 7.00 | 6.00 to 7.00 | 100 to 1000 | – | 6.00 to 7.00
Cn1cc2cc(-c3ccc4c(=O)n(C5CCNC6(CC6)C5)ccc4n3)c(O)cc2n1 (stereo not shown) [Compound 1242] | > 7.00 | > 7.00 | > 7.00 | < 100 | – | > 7.00
COc1c(-c2ccc3c(=O)n(C4CCNCC4)ccc3n2)cc2cn(C)nc2c1C [Compound 1243] | < 5.00 | < 5.00 | < 5.00 | > 10000 | – | < 5.00
Cn1cc2cc(-c3ccc4c(=O)n([C@@H]5CCNC6(CC6)C5)ccc4n3)c(O)cc2n1 [Compound 1246] | 6.00 to 7.00 | 6.00 to 7.00 | 6.00 to 7.00 | 100 to 1000 | – | 6.00 to 7.00
Cc1c(O)c(-c2ccc3c(=O)n(C4CCNCC4)cc(C)c3n2)cc2cn(C)nc12 [Compound 1284] | > 7.00 | 6.00 to 7.00 | 6.00 to 7.00 | < 100 | – | > 7.00
Cc1cn(C2CCNCC2)c(=O)c2ccc(-c3cc4cn(C)nc4c(F)c3O)nc12 [Compound 1285] | > 7.00 | > 7.00 | > 7.00 | < 100 | – | > 7.00
Cn1cc2nc(-c3ccc4c(=O)n(C5CCNCC5)ccc4n3)c(O)cc2n1 [Compound 1296] | > 7.00 | 6.00 to 7.00 | 6.00 to 7.00 | < 100 | – | > 7.00
Cc1cn2cc(-c3ccc4c(=O)n(C5CCNCC5)ccc4n3)cc(C#N)c2n1 [Compound 1297] | 6.00 to 7.00 | 6.00 to 7.00 | 6.00 to 7.00 | 100 to 1000 | – | 6.00 to 7.00
Cc1cn2cc(-c3ccc4c(=O)n(C5CCNC5)ccc4n3)cc(F)c2n1 (stereo not shown) [Compound 1299] | 5.00 to 6.00 | < 5.00 | < 5.00 | > 10000 | – | < 5.00
Cc1c(O)c(-c2ncc3c(=O)n(C4CCC(N)CC4)ccc3n2)cc2cn(C)nc12 (stereo not shown) [Compound 1300, 6-((1s,4s)-4-aminocyclohexyl)-2-(6-hydroxy-2,7-dimethyl-2H-indazol-5-yl)pyrido[4,3-d]pyrimidin-5(6H)-one] | 6.00 to 7.00 | 5.00 to 6.00 | 5.00 to 6.00 | 100 to 1000 | – | 6.00 to 7.00
Cc1cn2cc(-c3ncc4c(=O)n(C5CCNCC5)ccc4n3)cc(C#N)c2n1 [Compound 1301] | 6.00 to 7.00 | 6.00 to 7.00 | 6.00 to 7.00 | 100 to 1000 | – | 6.00 to 7.00
Cc1cn2cc(-c3ccc4c(=O)n(C5CCNC5)ccc4n3)c(O)c(C)c2n1 (stereo not shown) [Compound 1302] | < 5.00 | < 5.00 | < 5.00 | > 10000 | – | < 5.00
Cc1c(O)c(-c2ncc3c(=O)n(N4CCNCC4)ccc3n2)cc2cn(C)nc12 [Compound 1303] | 6.00 to 7.00 | 6.00 to 7.00 | 6.00 to 7.00 | 100 to 1000 | – | 6.00 to 7.00
Cc1c(O)c(-c2ncc3c(=O)n(C4CCN(C)CC4)ccc3n2)cc2cn(C)nc12 [Compound 1304] | 6.00 to 7.00 | 5.00 to 6.00 | 5.00 to 6.00 | 100 to 1000 | – | 6.00 to 7.00
Cc1c(O)c(-c2ncc3c(=O)n(C4CNC4)ccc3n2)cc2cn(C)nc12 [Compound 1305, 6-(azetidin-3-yl)-2-(6-hydroxy-2,7-dimethyl-indazol-5-yl)pyrido[4,3-d]pyrimidin-5-one] | 6.00 to 7.00 | < 5.00 | < 5.00 | > 10000 | – | < 5.00
Cc1c(O)c(-c2ncc3c(=O)n(C45CCC(N)(CC4)C5)ccc3n2)cc2cn(C)nc12 [Compound 1428] | > 7.00 | 5.00 to 6.00 | < 5.00 | 1000 to 10000 | – | 5.00 to 6.00
Cc1c(O)c(-c2ncc3c(=O)n([C@@H]4C[C@H]5CC[C@@H](C4)N5)ccc3n2)cc2cn(C)nc12 [Compound 1429, 6-[(1S,5R)-8-azabicyclo[3.2.1]octan-3-yl]-2-(6-hydroxy-2,7-dimethyl-indazol-5-yl)pyrido[4,3-d]pyrimidin-5-one] | > 7.00 | 6.00 to 7.00 | 6.00 to 7.00 | 100 to 1000 | – | 6.00 to 7.00
Cc1c(O)c(-c2ncc3c(=O)n([C@H]4C[C@@H](N)C4)ccc3n2)cc2cn(C)nc12 [Compound 1431, 6-((1s,3s)-3-aminocyclobutyl)-2-(6-hydroxy-2,7-dimethyl-2H-indazol-5-yl)pyrido[4,3-d]pyrimidin-5(6H)-one] | 6.00 to 7.00 | 5.00 to 6.00 | 5.00 to 6.00 | 1000 to 10000 | – | 5.00 to 6.00
Cc1c(O)c(-c2ncc3c(=O)n([C@H]4C[C@H](N)C4)ccc3n2)cc2cn(C)nc12 [Compound 1432, 6-((1r,3r)-3-aminocyclobutyl)-2-(6-hydroxy-2,7-dimethyl-2H-indazol-5-yl)pyrido[4,3-d]pyrimidin-5(6H)-one] | 6.00 to 7.00 | 5.00 to 6.00 | 5.00 to 6.00 | 1000 to 10000 | – | 5.00 to 6.00
